Like-named read-outs stand apart in the source and are kept apart here.
What was measured:
[1] = tested on: Puccinia recondita f, Sp. Tritici; test: Fungicidal activity against Puccinia recondita f. sp. tritici / wheat / leaf disc preventative (brown rust); format: in vivo; conditions: foliar, 200 ppm in the applied formulation, wheat leaf segments cv. Kanzler, inoculated 1 day after application, compared to untreated, read-out: disease control
Protocol: (§1) General examples of leaf disk tests in well plates: Leaf disks or leaf segments of various plant species are cut from plants grown in a greenhouse. The cut leaf disks or segments are placed in multiwell plates (24-well format) onto water agar. The leaf disks are sprayed with a test solution before (preventative) or after (curative) inoculation. Compounds to be tested are prepared as DMSO solutions (max. 10 mg/ml) which are diluted to the appropriate concentration with 0.025% Tween20 just before spraying. The inoculated leaf disks or segments are incubated under defined conditions (temperature, relative humidity, light, etc.) according to the respective test system. A single evaluation of disease level is carried out 3 to 14 days after inoculation, depending on the pathosystem. Percent disease control relative to the untreated check leaf disks or segments is then calculated. General examples of liquid culture tests in well plates: Mycelia fragments or conidia suspensions of a fungus prepared either freshly from liquid cultures of the fungus or from cryogenic storage, are directly mixed into nutrient broth. DMSO solutions of the test compound (max. 10 mg/ml) are diluted with 0.025% Tween20 by a factor of 50 and 10 μl of this solution is pipetted into a microtiter plate (96-well format). The nutrient broth containing the fungal spores/mycelia fragments is then added to give an end concentration of the tested compound. The test plates are incubated in the dark at 24° C. and 96% relative humidity. The inhibition of fungal growth is determined photometrically after 2 to 7 days, depending on the pathosystem, and percent antifungal activity relative to the untreated check is calculated.
Example 1: Fungicidal Activity Against Puccinia recondita f, Sp. Tritici/Wheat/Leaf Disc Preventative (Brown Rust)
Wheat leaf segments cv. Kanzler were placed on agar in multiwell plates (24-well format) and sprayed with the formulated test compound diluted in water. The leaf disks were inoculated with a spore suspension of the fungus 1 day after application. The inoculated leaf segments were incubated at 19° C. and 75% relative humidity (rh) under a light regime of 12 hours light/12 hours darkness in a climate cabinet and the activity of a compound was assessed as percent disease control compared to untreated when an appropriate level of disease damage appears in untreated check leaf segments (7 to 9 days after application).
(§2) The following compounds at 200 ppm in the applied formulation give at least 80% disease control in this test when compared to untreated control leaf disks under the same conditions, which show extensive disease development.

[2] = tested on: Glomerella Lagenarium (Colletotrichum Lagenarium); test: Fungicidal activity against Glomerella lagenarium (Colletotrichum lagenarium) liquid culture / cucumber / preventative (anthracnose); format: cell-based; conditions: Colletotrichum orbiculare, read-out: disease control
Protocol: as §1
Example 4: Fungicidal Activity Against Glomerella Lagenarium (Colletotrichum Lagenarium) Liquid Culture/Cucumber/Preventative (Anthracnose)
Conidia of the fungus from cryogenic storage are directly mixed into nutrient broth (PDB—potato dextrose broth). After placing a (DMSO) solution of test compound into a microtiter plate (96-well format), the nutrient broth containing the fungal spores is added. The test plates are incubated at 24° C. and the inhibition of growth is measured photometrically 3 to 4 days after application.
The following compounds at 20 ppm in the applied formulation give at least 80% disease control in this test when compared to untreated control under the same conditions, which show extensive disease development.

[3] = tested on: Puccinia Recondite f. Sp. Tritici; test: Fungicidal activity against Puccinia recondita f. sp. tritici / wheat / leaf disc curative (brown rust); format: in vivo; conditions: foliar, 24 h, 200 ppm in the applied formulation, wheat leaf segments cv. Kanzler, applied 1 day after inoculation, compared to untreated, read-out: disease control
Protocol: as §1
Example 2: Fungicidal Activity Against Puccinia Recondite f. Sp. Tritici Wheat/Leaf Disc Curative (Brown Rust)
Wheat leaf segments cv. Kanzler are placed on agar in multiwell plates (24-well format). The leaf segments are then inoculated with a spore suspension of the fungus. Plates were stored in darkness at 19° C. and 75% relative humidity. The formulated test compound diluted in water was applied 1 day after inoculation. The leaf segments were incubated at 19° C. and 75% relative humidity under a light regime of 12 hours light/12 hours darkness in a climate cabinet and the activity of a compound was assessed as percent disease control compared to untreated when an appropriate level of disease damage appears in untreated check leaf segments (6 to 8 days after application).
as §2

Phakopsora pachyrhizi = test: Fungicidal activity against Phakopsora pachyrhizi / soybean / leaf disc preventative (Asian soybean rust); format: in vivo; conditions: foliar, 200 ppm in the applied formulation, soybean leaf disks, inoculated one day after application, compared to untreated, read-out: disease control
Protocol: as §1
Example 3: Fungicidal Activity Against Phakopsora pachyrhizi/Soybean/Leaf Disc Preventative (Asian Soybean Rust)
Soybean leaf disks are placed on water agar in multiwell plates (24-well format) and sprayed with the formulated test compound diluted in water. One day after application leaf discs are inoculated by spraying a spore suspension on the lower leaf surface. After an incubation period in a climate cabinet of 24-36 hours in darkness at 20° C. and 75% rh leaf disc are kept at 20° C. with 12 h light/day and 75% rh. The activity of a compound is assessed as percent disease control compared to untreated when an appropriate level of disease damage appears in untreated check leaf disks (12 to 14 days after application).
as §2

[4] = 20 ppm in the applied formulation, liquid culture in PDB, growth inhibition measured photometrically 3 to 4 days after application, compared to untreated

Row | Compound | pest or weed control at 200 ppm [1] [%] | inhibition of growth at 20 ppm [2, 4] [%] | inhibition of growth at 20 ppm [2] [%] | pest or weed control at 200 ppm [3] [%] | pest or weed control at 200 ppm (Phakopsora pachyrhizi) [%]
1 | O=C(NCc1ccc(-c2noc(C(F)(F)F)n2)cc1)OCc1ccccc1 [Compound 1.4, benzyl N-[[4-[5-(trifluoromethyl)-1,2,4-oxadiazol-3-yl]phenyl]methyl] carbamate] | ≥ 80 | ≥ 80 |  |  | 
2 | O=C(NCc1ccc(-c2noc(C(F)(F)F)n2)cn1)Oc1ccccc1 [Compound 1.5, phenyl N-[[5-[5-(trifluoromethyl)-1,2,4-oxadiazol-3-yl)-2-pyridyl]methyl] carbamate] |  |  | ≥ 80 |  | 
3 | O=C(NCc1ccc(-c2noc(C(F)(F)F)n2)cn1)OCc1ccccc1 [Compound 1.6, benzyl N-[[5-[5-(trifluoromethyl)-l,2,4-oxadiazol-3-yl]-2-pyridyl]methyl] carbamate] | ≥ 80 | ≥ 80 |  | ≥ 80 | 
4 | O=C(NCc1ccc(-c2noc(C(F)(F)F)n2)cn1)Nc1ccccc1 [Compound 2.5, 1-phenyl-3-[[5-[5-(trifluoromethyl)-1,2,4-oxadiazol-3-yl]-2-pyridyl]methyl]urea] | ≥ 80 | ≥ 80 |  |  | 
5 | O=C(NCc1ccc(-c2noc(C(F)(F)F)n2)cc1)NC1CCCCC1 [Compound 2.6, 1-cyclohexyl-3-[[4-[5-(trifluoromethyl)-1,2,4-oxadiazol-3-yl]phenyl]methyl]urea] |  |  |  |  | ≥ 80
6 | O=C(NCc1ccc(-c2noc(C(F)(F)F)n2)cc1)Nc1ccccc1 [Compound 2.7, 1-phenyl-3-[[4-[5-(trifluoromethyl)-1,2,4-oxadiazol-3-yl]phenyl]methyl]urea] | ≥ 80 | ≥ 80 |  |  | ≥ 80
7 | O=C(NCc1ccccc1)NCc1ccc(-c2noc(C(F)(F)F)n2)cc1 [Compound 2.8, 1-benzyl-3-[[4-[5-(trifluoromethyl)-1,2,4-oxadiazol-3-yl]phenyl]methyl]urea] | ≥ 80 | ≥ 80 |  |  | 
8 | O=C(NCc1ccc(-c2noc(C(F)(F)F)n2)cc1)NC1CCC1 [Compound 2.9, 1-cyclobutyl-3-[[4-[5-(trifluoromethyl)-1,2,4-oxadiazol-3-yl]phenyl]methyl]urea] | ≥ 80 | ≥ 80 |  |  | 
9 | O=C(NCc1ccc(-c2noc(C(F)(F)F)n2)cc1)NC1CCCC1 [Compound 2.10, 1-cyclopentyl-3-[[4-[5-(trifluoromethyl)-1,2,4-oxadiazol-3-yl]phenyl]methyl]urea] | ≥ 80 | ≥ 80 |  |  | 
10 | O=C(NCc1ccc(-c2noc(C(F)(F)F)n2)cc1)NCc1ccco1 [Compound 2.11, 1-(2-furylmethyl)-3-[[4-[5-(trifluoromethyl)-l,2,4-oxadiazol-3-yl]phenyl]methyl]urea] |  | ≥ 80 |  |  | 
11 | O=C(NCc1ccccc1)NCc1ccc(-c2noc(C(F)(F)F)n2)cn1 [Compound 2.12, 1-benzyl-3-[[5-[5-(trifluoromethyl)-1,2,4-oxadiazol-3-yl]-2-pyridyl]methyl]urea] | ≥ 80 | ≥ 80 |  |  | 
12 | O=C(NCc1ccc(-c2noc(C(F)(F)F)n2)cn1)Nc1ccc(F)cc1 [Compound 2.13, 1-(4-fluorophenyl)-3-[[5-[5-(trifluoromethyl)-1,2,4-oxadiazol-3-yl]-2-pyridyl]methyl]urea] | ≥ 80 |  |  |  | 
13 | O=C(NCc1ccc(-c2noc(C(F)(F)F)n2)cn1)Nc1ccc(Cl)cc1 [Compound 2.15, 1-(4-chlorophenyl)-3-[[5-[5-(trifluoromethyl)-1,2,4-oxadiazol-3-yl]-2-pyridyl]methyl]urea] | ≥ 80 | ≥ 80 |  |  | 
14 | O=C(NCc1ccc(-c2noc(C(F)(F)F)n2)cn1)NCc1ccco1 [Compound 2.16] | ≥ 80 | ≥ 80 |  |  | 
15 | O=C(NCc1ccc(-c2noc(C(F)(F)F)n2)cn1)Nc1cccc(F)c1 [Compound 2.17, 1-(3-fluorophenyl)-3-[[5-[5-(trifluoromethyl)-1,2,4-oxadiazol-3-yl]-2-pyridyl]methyl]urea] | ≥ 80 | ≥ 80 |  | ≥ 80 | ≥ 80
16 | O=C(NCc1ccc(-c2noc(C(F)(F)F)n2)cn1)Nc1ccccc1F [Compound 2.18, 1-(2-fluorophenyl)-3-[[5-[5-(trifluoromethyl)-1,2,4-oxadiazol-3-yl]-2-pyridyl]methyl]urea] | ≥ 80 | ≥ 80 |  |  | 
17 | O=C(NCc1ccc(-c2noc(C(F)(F)F)n2)cn1)Nc1ccccc1Cl [Compound 2.19, 1-(2-chlorophenyl)-3-[[5-[5-(trifluoromethyl)-1,2,4-oxadiazol-3-yl]-2-pyridyl]methyl]urea] | ≥ 80 | ≥ 80 |  |  | ≥ 80
18 | CN(C(=O)NCc1ccc(-c2noc(C(F)(F)F)n2)cc1)C1CC1 [Compound 2.22, 1-cyclopropyl-1-methyl-3-[[4-[5-(trifluoromethyl)-1,2,4-oxadiazol-3-yl]phenyl]methyl]urea] | ≥ 80 | ≥ 80 |  | ≥ 80 | ≥ 80
19 | O=C(NCc1ccc(-c2noc(C(F)(F)F)n2)cc1)NC1COC1 [Compound 2.23, 1-(oxetan-3-yl)-3-[[4-[5-(trifluoromethyl)-1,2,4-oxadiazol-3-yl]phenyl]methyl]urea] | ≥ 80 |  |  |  | ≥ 80
20 | N#CC1(NC(=O)NCc2ccc(-c3noc(C(F)(F)F)n3)cc2)CC1 [Compound 2.24, 1-(1-cyanocyclopropyl)-3-[[4-[5-(trifluoromethyl)-1,2,4-oxadiazol-3-yl]phenyl]methyl]urea] | ≥ 80 |  |  | ≥ 80 | ≥ 80
21 | CC1(NC(=O)NCc2ccc(-c3noc(C(F)(F)F)n3)cc2)CC1 [Compound 2.25, 1-(1-methylcyclopropyl)-3-[[4-[5-(trifluoromethyl)-1,2,4-oxadiazol-3-yl]phenyl]methyl]urea] |  |  |  |  | ≥ 80
22 | CN(C(=O)NCc1ccc(-c2noc(C(F)(F)F)n2)cc1)C1CCC1 [Compound 2.26, 1-cyclobutyl-1-methyl-3-[[4-[5-(trifluoromethyl)-1,2,4-oxadiazol-3-yl]phenyl]methyl]urea] | ≥ 80 | ≥ 80 |  | ≥ 80 | ≥ 80
23 | CCN(CC1CC1)C(=O)NCc1ccc(-c2noc(C(F)(F)F)n2)cc1 [Compound 2.29, 1-(cyclopropylmethyl)-l-ethyl-3-[[4-[5-(trifluoromethyl)-1,2,4-oxadiazol-3-yl]phenyl]methyl]urea] | ≥ 80 | ≥ 80 |  |  | ≥ 80

Reference: patent US20190364899A1, “MICROBIOCIDAL OXADIAZOLE DERIVATIVES” (SYNGENTA PARTICIPATIONS AG, priority 2015, published 2019)
